Experiments:
[1] = Maternal indices: dam body weight, gestational weight gain, liver and kidney weight after daily oral gavage E1.5 to E11.5 or E17.5; type: in vivo, mouse (CD-1); conditions: female, CD-1, mouse, in vivo, oral; dam systemic toxicity: liver alterations, higher GWG, placental lesions; read-out: Lowest dose group evaluated, with significant adverse effects (no NOAEL reportable)
Protocol: Naïve female CD-1 mice between 7.5 and 15.5 wk of age from the NIEHS colony were bred in-house on a single night, and copulatory plug–positive females were identified on embryonic day (E) 0.5. Pregnant dams were singly housed in ventilated polypropylene cages and received nesting materials, National Institutes of Health (NIH)-31 diet (Zeigler Bros., Inc.) and reverse osmosis deionized (RODI) water ad libitum. Animals were housed in humidity- and temperature-controlled rooms with 25°C and 45–60% average humidity and standard 12-h light cycles. All animal procedures were approved by the NIEHS Animal Care and Use Committee (ASP #2017-0022).
PFOA and GenX dosing solutions were prepared in RODI water and administered to mice once daily via oral gavage. Daily doses were administered between 0700 and 0800 hours and adjusted to the BW of the mouse based on the previous day’s weight at a volume of 0.01mL/g BW. […] The dose of 1mg/kg BW/d PFOA, used in the mouse developmental toxicity study of [Lau et al. 2006], provided a lowest effect dose that was used to set the reference dose within the U.S. EPA’s drinking water lifetime health advisory level (HAL) of 70 ppt PFOA ([U.S. EPA 2016]).
This experiment was conducted over two blocks (Block 1 and Block 2) to achieve a total of n=11–13 litters per treatment group and sacrifice time point (E11.5 and E17.5). The experimental design of the second block was identical to the first block of the study, and experimental methods were similar but expanded upon to include more rigorous and detailed measurements. Copulatory plug–positive mice (E0.5) were weighed to obtain a baseline BW and placed into one of five groups. Once all mice were assigned to groups, mean BWs were calculated, and a few animals were reassigned so that mean BWs in each group were similar. This was done to avoid confounding effects of baseline BW. Treatment groups were then randomly assigned a color by using a random sequence generator. Experimenters and dosing technicians were blinded to the treatment group to which the color groups corresponded throughout the duration of the study, including at necropsy. […] Pregnant dams were dosed via oral gavage from E1.5 to E11.5 or from E1.5 to E17.5. […] The E11.5 early-gestation time point was selected because it overlaps a critical period of placental development in the mouse where the placenta undergoes vascularization with the uterine wall and chorioallantoic branching of vessels begins ([Watson and Cross 2005]). The E17.5 late-gestation time point was selected so that embryo weight changes that may be related to treatment would be evident.
On the day of necropsy, dams received daily oral gavage between 0700 and 0800 hours and were weighed and then euthanized humanely by swift decapitation, and serum was collected. In Block 1, necropsies were completed from 0800 to 1600 hours, and in Block 2, necropsies were completed from 0800 to 1200 hours. Serum from dams euthanized in Block 1 was snap frozen for internal dosimetry analyses. Serum and urine from Block 2 dams were reserved for clinical chemistry analyses. In both blocks, the uterus was removed, and total implantation sites were counted based on gross observation of an implantation nodule along the uterine horn. Viable embryos, nonviable embryos, and sites of resorption were counted based on gross observation. Embryos were considered viable if they were properly formed, were not pale in color, and were of similar size to neighboring embryos. Embryos that were poorly formed and pale in color (without heartbeat) were considered nonviable. Sites of resorption were defined as a dark red–appearing clot-like nodule apparent on gross observation.
From each uterus, first, viable embryos and their matched placentas were collected in succession within a horn and immediately snap frozen ( n=2–5 per litter ), and subsequent embryos were collected for growth measurements ( n=2–11 per litter ). […]

CD-1 mice = conditions: cited from earlier work
[2] = parameters: method as in Gannon et al. 2016; conditions: rats; ref Gannon et al. 2016; cited from earlier work
rats = conditions: ref Conley et al. 2019, cited from earlier work
[3] = parameters: method as in Olsen et al. 2007; conditions: ref Olsen et al. 2007; cited from earlier work
humans = test system: humans; parameters: method as in Johnson et al. 2014; conditions: meta-analysis; ref Johnson et al. 2014; cited from earlier work
mice = test system: mice; parameters: method as in Koustas et al. 2014; conditions: pregnant dams; meta-analysis; ref Koustas et al. 2014; cited from earlier work

SMILES | LOAEL [1] [mg/kg/day] | Dam plasma concentration (CD-1 mice; 5 mg/kg/d on lactation day 21, ref DuPont-18,405-1,037) [µg/mL] | NOAEL for reproductive toxicity and maternal systemic toxicity (CD-1 mice; microscopic changes in maternal liver, ref DuPont-18,405-1,037 (Edwards 2010b)) [mg/kg/day] | Elimination half-life [2] [h] | LOAEL, disrupted maternal lipids (rats; gestational exposure) [mg/kg/day] | LOAEL, disrupted maternal thyroid hormone (rats; gestational exposure) [mg/kg/day] | LOAEL, lower BWs in gestationally exposed female offspring (rats) [mg/kg/day] | Human half-life [3] [y] | Shift in birth weight per 1-ng/mL increase in serum PFOA (humans) [g] | Shift in pup birth weight per 1-mg/kg BW/d increase in PFOA dose (mice) [g]
N.O=C(O)C(F)(OC(F)(F)C(F)(F)C(F)(F)F)C(F)(F)F (stereo not shown) [GenX, ammonium 2,3,3,3-tetrafluoro-2-(heptafluoropropoxy)propanoate] | 2 | 36.4 | 5 | ~5 | 125 | 30 | 125 |  |  | 
O=C(O)C(F)(F)C(F)(F)C(F)(F)C(F)(F)C(F)(F)C(F)(F)C(F)(F)F [PFOA, Perfluorooctanoic acid] |  |  |  |  |  |  |  | ~3.5 | -18.9 | -0.023
